From ChEMBL document CHEMBL5055657, “Effect of phenylurea hydroxamic acids on histone deacetylase and VEGFR-2” (Bioorg Med Chem, 2021)

Columns and labels:
PC-3 = assay: cells; assay type: functional, cell-based; details: Homo sapiens, PC-3, 48 h
A549 = assay: cells; assay type: functional, cell-based; details: Homo sapiens, A549, 48 h
cells = assay type: functional; details: Homo sapiens, Endothelial progenitor cell; time 48 hrs
SK-HEP1 = assay: cells; assay type: functional, cell-based; details: Homo sapiens, SK-HEP1, 48 h
[1] = target: T1, Protein deacetylase HDAC6 (Homo sapiens, UniProt Q9UBN7); assay: Inhibition of full length recombinant N-terminal GST-tagged human HDAC6 expressed in baculovirus infected Sf9 insect cells using RHK-K(Ac)-AMC as substrate measured after 90 mins by fluorescence plate reader assay
T1 sequence (Q9UBN7 whole entry): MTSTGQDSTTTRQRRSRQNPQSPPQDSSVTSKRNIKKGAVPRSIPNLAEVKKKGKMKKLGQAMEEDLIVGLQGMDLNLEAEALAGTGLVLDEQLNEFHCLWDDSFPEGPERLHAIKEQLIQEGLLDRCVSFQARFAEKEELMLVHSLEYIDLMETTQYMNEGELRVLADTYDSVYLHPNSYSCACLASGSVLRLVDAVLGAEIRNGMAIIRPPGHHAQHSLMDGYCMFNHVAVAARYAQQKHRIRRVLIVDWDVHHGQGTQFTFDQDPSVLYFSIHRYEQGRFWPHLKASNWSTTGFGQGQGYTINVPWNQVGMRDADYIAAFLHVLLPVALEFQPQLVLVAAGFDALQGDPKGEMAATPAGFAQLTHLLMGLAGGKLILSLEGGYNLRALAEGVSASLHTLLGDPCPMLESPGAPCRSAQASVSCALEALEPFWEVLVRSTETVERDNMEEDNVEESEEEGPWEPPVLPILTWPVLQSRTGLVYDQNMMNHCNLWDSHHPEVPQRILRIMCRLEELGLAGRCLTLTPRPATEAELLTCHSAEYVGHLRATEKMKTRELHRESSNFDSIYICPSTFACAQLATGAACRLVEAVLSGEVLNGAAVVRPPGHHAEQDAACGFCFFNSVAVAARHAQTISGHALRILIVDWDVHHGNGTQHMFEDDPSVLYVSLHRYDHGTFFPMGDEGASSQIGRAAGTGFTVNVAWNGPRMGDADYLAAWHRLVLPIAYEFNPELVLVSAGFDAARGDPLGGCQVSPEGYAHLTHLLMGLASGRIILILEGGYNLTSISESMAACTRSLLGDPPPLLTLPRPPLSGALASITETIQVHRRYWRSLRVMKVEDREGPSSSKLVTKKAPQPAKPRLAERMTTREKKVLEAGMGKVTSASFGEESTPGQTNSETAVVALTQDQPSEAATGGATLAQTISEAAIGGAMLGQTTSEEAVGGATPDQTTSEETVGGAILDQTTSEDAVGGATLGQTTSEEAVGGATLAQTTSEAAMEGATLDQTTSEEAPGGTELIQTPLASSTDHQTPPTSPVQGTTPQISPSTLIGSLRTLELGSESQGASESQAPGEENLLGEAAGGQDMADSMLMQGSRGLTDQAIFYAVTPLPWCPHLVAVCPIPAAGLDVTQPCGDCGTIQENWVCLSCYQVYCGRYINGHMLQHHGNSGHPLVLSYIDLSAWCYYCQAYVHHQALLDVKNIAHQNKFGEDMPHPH

[2] = target: T2, Vascular endothelial growth factor receptor 2 (Homo sapiens, UniProt P35968)
[3] = target: T2, Vascular endothelial growth factor receptor 2; assay: Inhibition of VEGFR2 phosphorylation in human Endothelial progenitor cells at 5 to 10 uM measured after 10 mins by Western blot analysis; assay type: tissue-based; details: Endothelial progenitor cell, dose 5-10 µM
Homo sapiens [4] = organism: Homo sapiens; assay: Selectivity ratio of IC50 for full length recombinant C-terminal FLAG/His-tagged human HDAC1 expressed in baculovirus infected Sf21 insect cells to IC50 for full length recombinant N-terminal GST-tagged human HDAC6 expressed in baculovirus infected Sf9 insect cells
Histone deacetylase 2 = Histone deacetylase 2 (Homo sapiens, UniProt Q92769); assay: Inhibition of full length recombinant C-terminal GST-fusion-tagged human HDAC2 expressed in insect cells using RHK-K(Ac)-AMC as substrate measured after 60 mins by fluorescence plate reader assay
[5] = target: T3, Histone deacetylase (Homo sapiens) (UniProt Q13547+O15379+Q9UBN7+Q92769+Q9UQL6+Q8WUI4+Q9BY41+Q96DB2+P56524+Q9UKV0+Q969S8); assay: Inhibition of HDAC in human SK-HEP1 cells assessed as increase in acetylated histone H3 level measured after 24 hrs by Western blot analysis; assay type: cell-based; details: dose 5-10 µM
[6] = target: T3, Histone deacetylase (Homo sapiens); assay: Inhibition of HDAC in human A549 cells assessed as increase in acetylated histone H3 level measured after 24 hrs by Western blot analysis; assay type: cell-based; details: dose 5-10 µM
Histone deacetylase 1 = Histone deacetylase 1 (Homo sapiens, UniProt Q13547); assay: Inhibition of full length recombinant C-terminal FLAG/His-tagged human HDAC1 expressed in baculovirus infected Sf21 insect cells using RHK-K(Ac)-AMC as substrate measured after 60 mins by fluorescence plate reader assay
Homo sapiens [7] = organism: Homo sapiens; assay: Selectivity ratio of IC50 for recombinant C-terminal His-fusion tagged/N-terminal Strep2 tagged human HDAC8 (1 to 377 residues) expressed in insect cells to IC50 full length recombinant N-terminal GST-tagged human HDAC6 expressed in baculovirus infected Sf9 insect cells
[8] = target: T3, Histone deacetylase (Homo sapiens); assay: Inhibition of HDAC in human A549 cells assessed as increase in acetylated alpha tubulin level measured after 24 hrs by Western blot analysis; assay type: cell-based; details: dose 5-10 µM
Homo sapiens [9] = organism: Homo sapiens; assay: Selectivity ratio of IC50 for full length recombinant C-terminal GST-fusion-tagged human HDAC2 to IC50 for full length recombinant N-terminal GST-tagged human HDAC6 expressed in baculovirus infected Sf9 insect cells
Histone deacetylase 8 = target: T4, Histone deacetylase 8 (Homo sapiens, UniProt Q9BY41); assay: Inhibition of recombinant C-terminal His-fusion tagged/N-terminal Strep2 tagged human HDAC8 (1 to 377 residues) expressed in insect cells using RHK-K(Ac)-K(Ac)-AMC as substrate measured after 60 mins by fluorescence plate reader assay
T4 sequence (Q9BY41 whole entry): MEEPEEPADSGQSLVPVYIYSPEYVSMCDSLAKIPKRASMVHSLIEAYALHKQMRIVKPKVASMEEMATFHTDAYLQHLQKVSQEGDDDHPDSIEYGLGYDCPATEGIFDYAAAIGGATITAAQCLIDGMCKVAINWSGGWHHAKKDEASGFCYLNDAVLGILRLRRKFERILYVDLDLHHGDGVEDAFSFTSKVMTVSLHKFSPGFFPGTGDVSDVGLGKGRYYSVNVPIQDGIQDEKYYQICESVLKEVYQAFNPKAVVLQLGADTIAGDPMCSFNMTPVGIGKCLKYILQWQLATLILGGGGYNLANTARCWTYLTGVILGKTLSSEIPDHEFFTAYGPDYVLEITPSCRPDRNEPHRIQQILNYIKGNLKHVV

[10] = target: T3, Histone deacetylase (Homo sapiens); assay: Inhibition of HDAC in human PC-3 cells assessed as increase in acetylated alpha tubulin level measured after 24 hrs by Western blot analysis; assay type: cell-based; details: dose 5-10 µM
[11] = target: T3, Histone deacetylase (Homo sapiens); assay: Inhibition of HDAC in human PC-3 cells assessed as increase in acetylated histone H3 level measured after 24 hrs by Western blot analysis; assay type: cell-based; details: dose 5-10 µM
[12] = target: T3, Histone deacetylase (Homo sapiens); assay: Inhibition of HDAC in human SK-HEP1 cells assessed as increase in acetylated alpha tubulin level measured after 24 hrs by Western blot analysis; assay type: cell-based; details: dose 5-10 µM
[13] = tested on: Endothelial progenitor cell; assay: Antiangiogenesis activity in human Endothelial progenitor cells assessed as retarded capillary like tube formation measured for 24 hrs by microscopic analysis; assay type: functional, tissue-based; details: dose 5-10 µM

T2 sequence (P35968 whole entry): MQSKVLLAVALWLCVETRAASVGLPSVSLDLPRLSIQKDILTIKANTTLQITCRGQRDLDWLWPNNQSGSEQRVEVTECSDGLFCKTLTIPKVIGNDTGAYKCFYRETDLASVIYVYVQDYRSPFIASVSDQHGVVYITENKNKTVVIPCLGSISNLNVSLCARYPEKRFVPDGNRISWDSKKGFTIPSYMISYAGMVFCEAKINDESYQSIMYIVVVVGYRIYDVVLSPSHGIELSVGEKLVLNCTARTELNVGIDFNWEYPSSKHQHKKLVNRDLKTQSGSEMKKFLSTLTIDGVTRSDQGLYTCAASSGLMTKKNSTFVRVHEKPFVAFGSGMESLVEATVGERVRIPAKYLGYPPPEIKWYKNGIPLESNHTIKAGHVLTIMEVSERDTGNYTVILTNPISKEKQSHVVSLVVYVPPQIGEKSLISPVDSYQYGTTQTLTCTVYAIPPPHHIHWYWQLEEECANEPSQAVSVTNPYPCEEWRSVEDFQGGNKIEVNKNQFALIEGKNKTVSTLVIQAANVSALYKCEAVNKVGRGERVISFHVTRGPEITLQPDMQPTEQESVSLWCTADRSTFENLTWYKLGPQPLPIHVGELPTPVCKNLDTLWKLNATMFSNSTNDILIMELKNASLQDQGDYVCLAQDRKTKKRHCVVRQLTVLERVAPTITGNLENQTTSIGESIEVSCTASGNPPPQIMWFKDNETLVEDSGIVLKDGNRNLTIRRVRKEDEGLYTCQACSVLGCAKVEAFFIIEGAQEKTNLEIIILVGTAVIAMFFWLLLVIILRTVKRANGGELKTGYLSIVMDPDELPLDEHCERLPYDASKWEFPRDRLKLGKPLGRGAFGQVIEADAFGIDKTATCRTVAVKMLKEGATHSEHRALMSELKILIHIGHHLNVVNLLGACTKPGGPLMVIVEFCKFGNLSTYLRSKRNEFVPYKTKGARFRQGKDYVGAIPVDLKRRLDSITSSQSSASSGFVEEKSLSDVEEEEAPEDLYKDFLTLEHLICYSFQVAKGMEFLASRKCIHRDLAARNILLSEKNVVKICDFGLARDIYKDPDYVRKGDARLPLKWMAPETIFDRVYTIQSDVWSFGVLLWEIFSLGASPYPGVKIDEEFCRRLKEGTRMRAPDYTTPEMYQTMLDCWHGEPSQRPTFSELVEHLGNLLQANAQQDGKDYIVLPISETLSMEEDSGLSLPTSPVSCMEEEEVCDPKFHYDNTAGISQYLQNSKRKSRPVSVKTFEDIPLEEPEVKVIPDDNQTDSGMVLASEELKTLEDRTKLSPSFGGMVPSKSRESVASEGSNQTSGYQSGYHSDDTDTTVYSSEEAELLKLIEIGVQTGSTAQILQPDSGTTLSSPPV
Sequence of Histone deacetylase 2 (Q92769 whole entry, the tested form may be a part): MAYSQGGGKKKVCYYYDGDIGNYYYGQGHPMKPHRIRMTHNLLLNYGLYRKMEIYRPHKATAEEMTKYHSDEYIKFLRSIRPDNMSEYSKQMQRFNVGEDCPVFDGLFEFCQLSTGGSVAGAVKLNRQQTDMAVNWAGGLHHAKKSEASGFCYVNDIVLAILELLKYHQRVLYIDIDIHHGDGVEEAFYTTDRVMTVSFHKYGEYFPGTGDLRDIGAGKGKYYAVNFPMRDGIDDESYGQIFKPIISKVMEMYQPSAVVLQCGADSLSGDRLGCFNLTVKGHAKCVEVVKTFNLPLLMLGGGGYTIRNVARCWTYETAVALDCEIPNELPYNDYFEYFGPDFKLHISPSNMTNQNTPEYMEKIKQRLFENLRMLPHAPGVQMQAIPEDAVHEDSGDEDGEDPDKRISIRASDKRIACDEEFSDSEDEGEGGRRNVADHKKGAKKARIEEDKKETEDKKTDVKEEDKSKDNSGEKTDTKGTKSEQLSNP
Sequence of Histone deacetylase 1 (Q13547 whole entry, the tested form may be a part): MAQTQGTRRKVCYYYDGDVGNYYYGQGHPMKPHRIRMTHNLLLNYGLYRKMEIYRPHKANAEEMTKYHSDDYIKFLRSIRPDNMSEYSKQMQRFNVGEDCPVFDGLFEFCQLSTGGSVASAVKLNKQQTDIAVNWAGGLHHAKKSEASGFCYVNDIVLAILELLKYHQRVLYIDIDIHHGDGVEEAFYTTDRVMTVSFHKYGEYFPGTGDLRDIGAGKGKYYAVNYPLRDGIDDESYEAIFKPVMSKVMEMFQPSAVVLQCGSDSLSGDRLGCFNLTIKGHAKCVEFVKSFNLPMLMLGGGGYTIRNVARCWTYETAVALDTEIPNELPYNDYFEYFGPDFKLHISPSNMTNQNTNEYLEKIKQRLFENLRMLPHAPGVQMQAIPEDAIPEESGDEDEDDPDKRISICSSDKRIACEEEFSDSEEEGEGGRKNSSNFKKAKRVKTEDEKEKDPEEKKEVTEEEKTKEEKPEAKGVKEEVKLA

| IC50 (PC-3) | IC50 (A549) | IC50 (SK-HEP1) | IC50 [1] | SMILES | GI50 (cells) | also measured |
| --- | --- | --- | --- | --- | --- | --- |
| > 10 µM | > 10 µM | > 10 µM | – | O=C(CCCCCC(=O)Nc1ccc(NC(=O)Nc2ccc(Cl)c(C(F)(F)F)c2)cc1)NO | > 10000 nM | – |
| 6.3 µM | 5 µM | 7.3 µM | – | CNC(=O)c1cc(Oc2ccc(NC(=O)Nc3ccc(Cl)c(C(F)(F)F)c3)cc2)ccn1 [SORAFENIB] | 5000 nM | – |
| > 10 µM | > 10 µM | > 10 µM | – | O=C(Nc1ccc(Nc2ncc(C(=O)NO)cn2)cc1)Nc1ccc(Cl)c(C(F)(F)F)c1 | 5800 nM | – |
| 4.6 µM | 9.5 µM | 8.1 µM | – | O=C(CCCCCCC(=O)Nc1ccc(NC(=O)Nc2ccc(Cl)c(C(F)(F)F)c2)cc1)NO | 4500 nM | – |
| 3.4 µM | 3.1 µM | 4.6 µM | – | O=C(Nc1ccc2c(c1)CCN2Cc1ccc(C(=O)NO)cc1)Nc1ccc(Cl)c(C(F)(F)F)c1 | 1600 nM | – |
| 3.1 µM | 7.2 µM | 3.8 µM | – | O=C(Nc1ccc(C(=O)NO)cc1)Nc1ccc(Cl)c(C(F)(F)F)c1 | 1300 nM | – |
| 3.8 µM | 3.4 µM | 4.1 µM | 825 nM | O=C(Nc1ccc2c(c1)CCN2c1ccc(C(=O)NO)cc1)Nc1ccc(Cl)c(C(F)(F)F)c1 | 2000 nM | – |
| 1.9 µM | 3.4 µM | 3.2 µM | 166 nM | O=C(/C=C/c1ccc(NC(=O)Nc2ccc(Cl)c(C(F)(F)F)c2)cc1)NO | 1000 nM | IC50 [2]: 13.2 µM; inhibition [3]: Dose-dependent effect; Ratio IC50 (Homo sapiens [4]): 43.6; IC50 (Histone deacetylase 2): > 10 µM; inhibition [5]: Dose-dependent effect; inhibition [6]: Dose-dependent effect; IC50 (Histone deacetylase 1): 7.23 µM; Ratio IC50 (Homo sapiens [7]): 12; inhibition [8]: Dose-dependent effect; Ratio IC50 (Homo sapiens [9]): > 60.2; IC50 (Histone deacetylase 8): 1990 nM; inhibition [10]: Dose-dependent effect; inhibition [11]: Dose-dependent effect; inhibition [12]: Dose-dependent effect; Activity [13]: Dose-dependent effect |
| 3.1 µM | 2.8 µM | 4.5 µM | 251 nM | O=C(Nc1ccc2c(c1)N(Cc1ccc(C(=O)NO)cc1)CC2)Nc1ccc(Cl)c(C(F)(F)F)c1 | 1400 nM | inhibition [5]: Dose-dependent effect; inhibition [6]: Dose-dependent effect; Ratio IC50 (Homo sapiens [7]): 6.8; inhibition [8]: Dose-dependent effect; IC50 (Histone deacetylase 8): 1710 nM; inhibition [10]: Dose-dependent effect; inhibition [11]: Dose-dependent effect; inhibition [12]: Dose-dependent effect |
| > 10 µM | > 10 µM | > 10 µM | – | O=C(CCCC(=O)Nc1ccc(NC(=O)Nc2ccc(Cl)c(C(F)(F)F)c2)cc1)NO | > 10000 nM | – |
| 2.3 µM | 2.7 µM | 3.5 µM | 1140 nM | O=C(/C=C/c1ccc(CN2CCc3cc(NC(=O)Nc4ccc(Cl)c(C(F)(F)F)c4)ccc32)cc1)NO | 1200 nM | – |
| 3.2 µM | 3 µM | 4.5 µM | – | O=C(Nc1ccc2c(c1)CCCN2Cc1ccc(C(=O)NO)cc1)Nc1ccc(Cl)c(C(F)(F)F)c1 | 1400 nM | – |
| 3 µM | 2.9 µM | 3.4 µM | 1200 nM | O=C(Nc1ccc2c(c1)CCCN2c1ccc(C(=O)NO)cc1)Nc1ccc(Cl)c(C(F)(F)F)c1 | 1000 nM | IC50 [2]: 13.2 µM |
| 3.8 µM | 4.3 µM | 7.2 µM | – | O=C(Nc1ccc(NCc2ccc(C(=O)NO)cc2)cc1)Nc1ccc(Cl)c(C(F)(F)F)c1 | 2800 nM | – |
| > 10 µM | > 10 µM | > 10 µM | – | O=C(CCCCC(=O)Nc1ccc(NC(=O)Nc2ccc(Cl)c(C(F)(F)F)c2)cc1)NO | > 10000 nM | – |
